Results as given in paper PMC8772941 (Biomedicines, 2021).
Read-outs that look alike come from different tables or passages of the source. Marks after values point to notes of the source that are not given here.

Columns and labels:
[1] = test system: D2R E95A; design: method as in PMID 29325769; details: log values from pERK assay; cited from earlier work
[2] = test system: D2R S194A; design: method as in PMID 29325769; details: log values from pERK assay; cited from earlier work
[3] = test system: D2R S193A; design: method as in PMID 29325769; details: log value from radioligand binding; cited from earlier work
[4] = test system: D2R V91A; design: method as in PMID 29325769; details: log values from pERK assay; cited from earlier work
[5] = test system: D2R L94A; design: method as in PMID 29325769; details: log values from pERK assay; cited from earlier work
[6] = test system: D2R; details: in the presence of µM concentrations of DA; pre-incubation protocols; cited from earlier work
[7] = test system: WT D2R; design: method as in PMID 29325769; details: log value from radioligand binding; cited from earlier work
[8] = test system: WT D2R; design: method as in PMID 29325769; details: log values from pERK assay; cited from earlier work
[9] = biological target: T1, GIRK1/4 (Homo sapiens, UniProt P48544+P48549); assay: Control: direct inhibition of GIRK currents in oocytes expressing GIRK1/4 in the absence of the D2R
T1 sequence (P48549 1-501): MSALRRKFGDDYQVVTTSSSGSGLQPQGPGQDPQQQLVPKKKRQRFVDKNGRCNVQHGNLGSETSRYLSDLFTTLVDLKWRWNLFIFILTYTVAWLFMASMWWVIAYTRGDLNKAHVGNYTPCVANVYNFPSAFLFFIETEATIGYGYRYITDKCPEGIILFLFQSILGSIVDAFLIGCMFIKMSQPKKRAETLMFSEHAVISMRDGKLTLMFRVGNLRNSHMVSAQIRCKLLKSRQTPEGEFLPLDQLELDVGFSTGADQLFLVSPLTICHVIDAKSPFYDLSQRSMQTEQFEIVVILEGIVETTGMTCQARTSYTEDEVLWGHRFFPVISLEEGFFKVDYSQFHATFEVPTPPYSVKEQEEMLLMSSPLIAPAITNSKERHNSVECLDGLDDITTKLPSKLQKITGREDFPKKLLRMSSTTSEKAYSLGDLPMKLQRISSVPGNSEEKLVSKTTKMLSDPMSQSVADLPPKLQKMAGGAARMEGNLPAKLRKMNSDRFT
T1 sequence (P48544 1-419): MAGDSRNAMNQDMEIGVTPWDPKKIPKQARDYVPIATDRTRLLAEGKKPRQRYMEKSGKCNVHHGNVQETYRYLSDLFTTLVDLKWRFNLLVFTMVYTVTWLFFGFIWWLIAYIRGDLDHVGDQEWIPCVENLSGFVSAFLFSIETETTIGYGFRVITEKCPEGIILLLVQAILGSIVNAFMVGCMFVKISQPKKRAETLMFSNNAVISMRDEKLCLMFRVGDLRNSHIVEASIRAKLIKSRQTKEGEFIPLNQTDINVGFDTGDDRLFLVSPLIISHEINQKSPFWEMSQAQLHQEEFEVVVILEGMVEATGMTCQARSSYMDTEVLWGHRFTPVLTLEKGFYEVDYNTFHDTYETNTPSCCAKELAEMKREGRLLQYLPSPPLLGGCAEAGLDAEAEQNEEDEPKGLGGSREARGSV

Question: For `N#Cc1ccc2c(c1)CN(CC[C@H]1CC[C@H](NC(=O)c3cc4ccccc4[nH]3)CC1)CC2` [SB269,652, N-((trans)-4-(2-(7-cyano-3,4-dihydroisoquinolin-2(1H)-yl)ethyl)cyclohexyl)-1H-indole-2-carboxamide], which “Negative Cooperativity of SB269,652 Interaction with DA” value (from here on “Negative Cooperativity”) [1] is on record?
Answer: ↓ 0.32 ± 0.14

Question: And the “Negative Cooperativity” value [2]?
Answer: ↓ 0.52 ± 0.09

Question: What about the “Negative Cooperativity” value [3] of the same compound?
Answer: ↑ (1.47 ± 0.15 *) ^b

Question: What about the “Negative Cooperativity” value [4] of the same compound?
Answer: ↓ 0.48 ± 0.16

Question: What about the “Negative Cooperativity” value [5] of the same compound?
Answer: ↓ 0.70 ± 0.08

Question: What about the “SB269,652 IC50 at the D2R in previous reports” value [6] of the same compound?
Answer: high nM range

Question: What about the “Negative Cooperativity” value [7] of the same compound?
Answer: 0.54 ± 0.11

Question: What about the “Negative Cooperativity” value [8] of the same compound?
Answer: 1.23 ± 0.14

Question: And the “Ligand-mediated direct inhibition of GIRK currents (>10%)” value [9]?
Answer: not observed
